# Measurements as given in ChEMBL document CHEMBL1138747, “Synthesis and structure--activity relationship in a class of indolebutylpiperazines as dual 5-HT(1A) receptor agonists and serotonin reuptake inhibitors” (J Med Chem, 2004).
# Columns and labels:
# [1] = molecular target: 5-hydroxytryptamine receptor 1B (Rattus norvegicus, UniProt P28564); assay: Inhibition of rat hydroxytryptamine 1B receptor
# [2] = molecular target: T1, Serotonin 3 (5-HT3) receptor (Rattus norvegicus, UniProt P35563+Q9JJ16); assay: Inhibition against rat hydroxytryptamine 3 receptor; type: protein-complex assay
# T1 sequence (P35563 whole entry): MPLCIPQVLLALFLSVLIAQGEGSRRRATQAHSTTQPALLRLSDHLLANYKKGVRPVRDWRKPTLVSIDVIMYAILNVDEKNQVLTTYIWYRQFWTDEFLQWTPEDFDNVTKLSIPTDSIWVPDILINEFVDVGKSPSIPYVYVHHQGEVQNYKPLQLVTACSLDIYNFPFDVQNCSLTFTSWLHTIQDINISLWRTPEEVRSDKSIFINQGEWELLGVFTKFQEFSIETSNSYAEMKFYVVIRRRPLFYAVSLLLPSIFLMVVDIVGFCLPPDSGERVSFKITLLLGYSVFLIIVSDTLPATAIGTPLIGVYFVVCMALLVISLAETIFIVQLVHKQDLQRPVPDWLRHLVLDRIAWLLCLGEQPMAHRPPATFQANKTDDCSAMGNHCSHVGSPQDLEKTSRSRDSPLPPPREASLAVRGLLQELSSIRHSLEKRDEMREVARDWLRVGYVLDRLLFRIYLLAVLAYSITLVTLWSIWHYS
# T1 sequence (Q9JJ16 whole entry): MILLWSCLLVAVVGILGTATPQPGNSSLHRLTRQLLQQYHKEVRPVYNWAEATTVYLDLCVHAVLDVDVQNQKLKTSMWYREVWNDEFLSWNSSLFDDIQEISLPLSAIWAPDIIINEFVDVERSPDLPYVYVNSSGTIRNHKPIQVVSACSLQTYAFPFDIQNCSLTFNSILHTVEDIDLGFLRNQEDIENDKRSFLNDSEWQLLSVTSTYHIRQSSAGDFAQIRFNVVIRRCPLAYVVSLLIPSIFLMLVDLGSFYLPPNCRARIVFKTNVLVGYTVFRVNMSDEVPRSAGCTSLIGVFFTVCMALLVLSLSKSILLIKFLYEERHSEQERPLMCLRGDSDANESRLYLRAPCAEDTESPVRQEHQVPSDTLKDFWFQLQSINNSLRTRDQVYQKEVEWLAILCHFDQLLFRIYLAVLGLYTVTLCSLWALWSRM
# [3] = molecular target: T2, Adrenergic receptor alpha-2 (Homo sapiens, UniProt P08913+P18825+P18089); assay: Inhibition of alpha-2-adrenergic receptor; type: protein assay
# T2 sequence (P08913 whole entry): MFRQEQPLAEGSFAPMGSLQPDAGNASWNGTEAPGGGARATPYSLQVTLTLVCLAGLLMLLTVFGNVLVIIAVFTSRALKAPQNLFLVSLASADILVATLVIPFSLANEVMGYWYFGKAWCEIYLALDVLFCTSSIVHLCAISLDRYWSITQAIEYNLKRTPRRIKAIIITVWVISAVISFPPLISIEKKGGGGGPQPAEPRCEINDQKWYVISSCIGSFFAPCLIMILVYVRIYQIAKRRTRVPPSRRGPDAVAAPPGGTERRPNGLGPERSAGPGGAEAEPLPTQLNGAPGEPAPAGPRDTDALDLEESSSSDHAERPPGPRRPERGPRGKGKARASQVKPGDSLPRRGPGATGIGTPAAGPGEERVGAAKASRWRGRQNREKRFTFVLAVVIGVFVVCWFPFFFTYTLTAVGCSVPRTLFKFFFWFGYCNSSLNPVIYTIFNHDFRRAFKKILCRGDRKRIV
# T2 sequence (P18825 whole entry): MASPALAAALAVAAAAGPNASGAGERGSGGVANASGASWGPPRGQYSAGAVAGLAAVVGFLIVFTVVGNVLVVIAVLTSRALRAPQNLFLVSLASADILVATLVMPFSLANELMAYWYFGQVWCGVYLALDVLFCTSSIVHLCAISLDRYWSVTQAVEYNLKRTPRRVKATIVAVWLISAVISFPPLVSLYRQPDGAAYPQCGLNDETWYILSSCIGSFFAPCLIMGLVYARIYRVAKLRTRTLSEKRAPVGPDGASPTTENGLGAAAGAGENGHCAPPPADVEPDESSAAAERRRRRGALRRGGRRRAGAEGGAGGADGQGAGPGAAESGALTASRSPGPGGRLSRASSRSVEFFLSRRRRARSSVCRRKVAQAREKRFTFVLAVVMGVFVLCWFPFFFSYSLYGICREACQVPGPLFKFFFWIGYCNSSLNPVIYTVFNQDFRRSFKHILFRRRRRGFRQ
# T2 sequence (P18089 whole entry): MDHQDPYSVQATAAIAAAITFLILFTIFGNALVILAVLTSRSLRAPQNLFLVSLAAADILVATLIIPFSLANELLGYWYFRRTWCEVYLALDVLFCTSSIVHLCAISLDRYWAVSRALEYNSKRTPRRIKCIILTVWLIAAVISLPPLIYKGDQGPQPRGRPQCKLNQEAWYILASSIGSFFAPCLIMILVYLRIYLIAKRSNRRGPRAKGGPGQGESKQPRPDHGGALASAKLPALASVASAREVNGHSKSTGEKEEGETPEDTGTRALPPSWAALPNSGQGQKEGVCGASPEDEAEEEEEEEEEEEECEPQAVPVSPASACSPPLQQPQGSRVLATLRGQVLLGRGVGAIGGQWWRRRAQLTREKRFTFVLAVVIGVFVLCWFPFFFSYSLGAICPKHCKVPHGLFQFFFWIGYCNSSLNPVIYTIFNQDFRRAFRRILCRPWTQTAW
# [4] = molecular target: T3, D(4) dopamine receptor (Rattus norvegicus, UniProt P30729); assay: Inhibition of rat dopamine D4 receptor
# T3 sequence (P30729 whole entry): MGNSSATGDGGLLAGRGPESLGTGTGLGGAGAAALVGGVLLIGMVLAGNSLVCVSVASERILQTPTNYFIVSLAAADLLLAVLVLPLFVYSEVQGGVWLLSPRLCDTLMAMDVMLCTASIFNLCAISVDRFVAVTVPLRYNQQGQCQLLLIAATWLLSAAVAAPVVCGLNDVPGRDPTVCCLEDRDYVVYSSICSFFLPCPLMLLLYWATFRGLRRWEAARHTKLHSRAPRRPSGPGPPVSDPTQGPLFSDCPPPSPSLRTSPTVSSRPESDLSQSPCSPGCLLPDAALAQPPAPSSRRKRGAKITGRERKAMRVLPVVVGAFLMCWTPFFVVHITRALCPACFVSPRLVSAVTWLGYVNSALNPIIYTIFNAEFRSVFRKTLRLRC
# [5] = molecular target: 5-hydroxytryptamine receptor 7 (Rattus norvegicus, UniProt P32305); assay: Inhibition of rat hydroxytryptamine 7 receptor
# Sequence of 5-hydroxytryptamine receptor 7 (P32305 whole entry): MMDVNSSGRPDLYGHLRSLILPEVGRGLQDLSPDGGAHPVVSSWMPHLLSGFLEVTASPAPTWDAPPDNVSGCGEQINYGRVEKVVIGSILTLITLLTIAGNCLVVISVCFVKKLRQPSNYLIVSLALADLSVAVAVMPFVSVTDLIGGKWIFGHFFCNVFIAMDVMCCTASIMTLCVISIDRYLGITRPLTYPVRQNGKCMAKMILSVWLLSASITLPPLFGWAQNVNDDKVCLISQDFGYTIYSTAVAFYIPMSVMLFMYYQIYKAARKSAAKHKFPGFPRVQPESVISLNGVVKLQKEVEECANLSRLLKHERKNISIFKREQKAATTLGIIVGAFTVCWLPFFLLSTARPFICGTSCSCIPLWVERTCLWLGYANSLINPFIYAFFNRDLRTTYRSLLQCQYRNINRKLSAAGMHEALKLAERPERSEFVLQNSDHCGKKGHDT
# Sequence of 5-hydroxytryptamine receptor 1B (P28564 whole entry): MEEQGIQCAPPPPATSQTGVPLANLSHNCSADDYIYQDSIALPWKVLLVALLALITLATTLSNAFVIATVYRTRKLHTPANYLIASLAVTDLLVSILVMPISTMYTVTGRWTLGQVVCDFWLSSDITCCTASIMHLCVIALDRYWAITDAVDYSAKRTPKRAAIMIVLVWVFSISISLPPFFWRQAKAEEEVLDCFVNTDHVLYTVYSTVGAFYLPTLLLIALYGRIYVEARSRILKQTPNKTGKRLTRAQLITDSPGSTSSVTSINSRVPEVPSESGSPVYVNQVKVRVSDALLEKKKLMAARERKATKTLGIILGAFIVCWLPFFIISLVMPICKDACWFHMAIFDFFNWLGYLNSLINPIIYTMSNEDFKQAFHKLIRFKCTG
compound,measurement,setting,value
N#Cc1ccc2[nH]cc(CCCCN3CCN(c4ccc5oc(C(N)=O)cc5c4)CC3)c2c1 [VILAZODONE],IC50,[1],5 µM
same,IC50,[2],4.3 µM
same,IC50,[3],6 µM
same,IC50,[4],3.4 µM
same,IC50,[5],3.9 µM
